This note sets out measurements from PubChem BioAssay (NCI).

Holding throughout (test): inhibition of tumour cell growth, NCI panel, 48 h
Assay [1] relates to HCT-15 colon.
The subject of assay [2] is M14 melanoma.
For assay [3], the system named is NCI-H460 lung.
Assay [4] has as its system NCI-H522 lung.
Assay [5] concerns OVCAR-4 ovarian.
Assay [6] deals with SF-295 CNS.
Assay [7] deals with SR leukemia.
For assay [8], the system named is TK-10 renal.
In assay [9] the test system is UACC-257 melanoma.

The structures appear in SMILES notation.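 Results reflect a 48-hour exposure of cells in 96-well plates to compound at five concentrations. Abbreviation: GI50, concentration required for 50% inhibition of growth. TGI: concentration producing complete growth inhibition.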 A value given as a limit tells only on which side of the number the result lay.

In the case of `O=C1NC2=C(CCCCC/C2=N\O)C12CCCCCC2`, the TGI in assay [1], in assay [2], in assay [3], in assay [4], in assay [5] and in [6] was more than 100 µM in each case. Further, the TGI in assay [7], in [8] and in assay [9] was more than 100 µM throughout.

With `CCc1cccc(C)c1NC(=O)CCc1nc(=S)[nH][nH]1`, the TGI in [1], in [2], in assay [3], in assay [4], in [5] and in [6] was more than 100 µM throughout. In addition, the TGI in assay [7], in [8] and in assay [9] was more than 100 µM in each case.

Consider `Cc1ccc2c(c1)CN1c3ccc(C)cc3CN2C1c1ccccc1O`, for which the TGI in assay [1], in [2], in [3], in [4], in assay [5] and in assay [6] was more than 100 µM throughout. In addition, the figures for the TGI in assay [7] and in [8] were more than 100 µM and 88.1 µM, respectively.

As to `CCN(CC)Cc1cc(Nc2nc(NC3CCC(N(C)C)CC3)c3ccccc3n2)ccc1OC` (centres undefined), the GI50 in assay [1] was 15.2 µM; in assay [2], 1.91 µM; in assay [3], 5.18 µM; in [4], 2.45 µM; in assay [5], 4.24 µM; in assay [6], 2.33 µM. Further, the results for the GI50 in assay [7], in [8] and in assay [9] were 2.13 µM, 12 µM and 1.82 µM, respectively. In addition, the TGI in assay [1] is 35.3 µM; in [2] it was 3.57 µM; in assay [3], 17.6 µM; in assay [4], 6.96 µM; in [5] it was 18.3 µM; in assay [6], 7.01 µM. The TGI is 4.74 µM in assay [7], 25.4 µM in [8] and 3.84 µM in assay [9].

Consider `Cc1nc(N)nc(CCC(=O)Nc2cccc(C(F)(F)F)c2)c1-c1ccc(Cl)cc1`, for which the TGI in assay [1], in assay [2], in [3], in assay [4], in assay [5] and in assay [6] was more than 100 µM in each case. Also, the TGI was 56.8 µM in assay [7], more than 100 µM in [8] and more than 100 µM in assay [9].

With `Cc1ccc(S(=O)(=O)OCC/C(=C\[Si](C)(C)C)c2ccccc2)cc1`, the TGI in [1], in assay [2], in assay [3], in assay [4], in assay [5] and in assay [6] was more than 100 µM each time. Moreover, the TGI in assay [7], in [8] and in assay [9] was more than 100 µM throughout.

Take `COC(=O)C1C(C(=O)OC)C2C(=O)C3C(C(=O)OC)C(C(=O)OC)C3C(=O)C12` (centres undefined): the TGI in assay [3], in [4], in assay [5], in assay [6], in assay [7] and in assay [8] was more than 100 µM in each case. For the same compound, in assay [9], the TGI is more than 100 µM.

Consider `O=[N+]([O-])c1ccccc1C1SCc2nc3ccccc3n21` (centres undefined), for which the TGI in assay [3], in assay [4], in [5], in assay [6], in [7] and in assay [8] was more than 100 µM throughout. In assay [9], this compound yielded a TGI of more than 100 µM.

`COC(=O)C1C(=O)O[C@@H](c2ccc3c(c2)OCO3)C1C(=O)OC` (mixture of isomers): the TGI in assay [1], in assay [2], in assay [3], in assay [4], in assay [5] and in assay [6] was more than 100 µM in each case. Besides, the TGI in [7], in assay [8] and in [9] was more than 100 µM in each case.

Turning to `COc1nc2c(c(O)c(C)c(=O)n2OC2OCC(OC(C)=O)C(OC(C)=O)C2OC(C)=O)c(=O)n1C` (centres undefined), the TGI in [1], in [2], in assay [3], in assay [4], in assay [5] and in assay [6] was more than 100 µM throughout. Besides, the TGI in assay [7] and in [8] was more than 100 µM each time.

Turning to `NNC(=O)C(=O)N/N=C1/CCCC1C(=O)CCC(=O)Nc1ccc(Cl)cc1` (centres undefined), the TGI in [1], in assay [2], in [3], in assay [4], in assay [5] and in [6] was more than 100 µM throughout. For the same compound, the TGI in [7], in assay [8] and in [9] was more than 100 µM each time.

On to `O=C(NC12CC3CCC1CC(C3)C2)[C@@H]1CCCN1C(=O)OCc1ccccc1` (some centres undefined), for which the TGI in [1], in [2], in assay [4], in assay [6], in assay [7] and in assay [8] was more than 100 µM each time. The TGI in [9] was more than 100 µM.
